Laboratory results taken from ChEMBL document CHEMBL1154798, “Aminocaprophenone- and pyrrolidine-type alkaloids from the leaves of Ficus septica” (J Nat Prod, 2009).

Tests used:
HeLa = assay: Cytotoxicity against human HeLa cells after 48 hrs by WST8 colorimetric assay; assay type: functional, cell-based
[1] = Cytotoxicity against human ACC-MESO1 cells after 48 hrs by WST8 colorimetric assay; assay type: functional, cell-based; conditions: ACC-MESO-1, 48 h

Compound	IC50 (HeLa)	IC50 [1]
COc1cc2c3c(c4ccc(OC)c(OC)c4c2cc1OC)[C@H](O)[C@@H]1CCC[N+]1([O-])C3 (stereo partly specified)	7.1 µM	28 µM
COc1cc(C(=O)CCCCCN(C)C)ccc1O [FICUSEPTAMINE A]	57 µM	160 µM
COc1ccc(C(=O)CCCCCN(C)C)cc1O [FICUSEPTAMINE B]	23 µM	72 µM
COc1cc(C(=O)CC2CCC[N+]2(C)C)ccc1O (stereo unspecified) [FICUSEPTAMINE C]	> 160 µM	> 160 µM
COc1cc(C(=O)CC2CCCN2C)ccc1O (stereo unspecified) [PHYLLOSTERONE]	> 160 µM	> 160 µM
CC(=O)c1ccc(O)c(O[C@@H]2O[C@H](CO)[C@@H](O)[C@H](O)[C@H]2O)c1 [PUNGENIN]	> 160 µM	> 160 µM
COc1ccc(C2=C(c3ccc(OC)c(OC)c3)CN3CCC[C@@H]3C2)cc1OC [SEPTICINE]	38 µM	63 µM
COc1cc2c3c(c4cc(OC)c(OC)cc4c2cc1OC)CN1CCC[C@@H]1C3 [TYLOPHORINE]	3.1 µM	12 µM
